In US20160145267A1, “HETEROARYL SUBSTITUTED PYRAZOLES” (BAYER PHARMA AKTIENGESELLSCHAFT, priority 2013, published 2016):
Where two headings read alike, the source gives them in different places.

Tests used:
[1] = target: T1, catalytic domain of human Bub1 (amino acids 704-1085) (Homo sapiens, UniProt O43683); test: Bub1 kinase assay (TR-FRET); format: biochemical
T1 construct: catalytic domain of human Bub1 (amino acids 704-1085); His6 (N); made in house; host or cells: Hi5 insect cells
Method: To this end, 100-fold concentrated compound solutions (in DMSO) were previously prepared by serial dilution (1:3.4) of 2 mM stocks in a clear low volume 384-well source microtiter plate (Greiner Bio-One, Frickenhausen, Germany), from which 50 nL of compounds were transferred into a black low volume test microtiter plate from the same supplier. […] The resulting mixture (5 μL final volume) was incubated at 22° C. during 60 min., and the reaction was stopped by the addition of 5 μL of an aqueous EDTA-solution (50 mM EDTA, in 100 mM HEPES pH 7.5 and 0.2% (w/v) bovine serum albumin) which also contained the TR-FRET detection reagents (0.2 μM streptavidin-XL665 [Cisbio Bioassays, Codolet, France] and 1 nM anti-phoshoSerine antibody [Merck Millipore, cat. #35-001] and 0.4 nM LANCE EU-W1024 labeled anti-mouse IgG antibody [Perkin-Elmer, product no. AD0077, alternatively a Terbium-cryptate-labeled anti-mouse IgG antibody from Cisbio Bioassays can be used]). The stopped reaction mixture was further incubated 1 h at 22° C. in order to allow the formation of complexes between peptides and detection reagents. Subsequently, the amount of product was evaluated by measurement of the resonance energy transfer from the Eu-chelate-antibody complex recognizing the Phosphoserine residue to the streptavidin-XL665 bound to the biotin moiety of the peptide.

HeLa cell line = test: Proliferation assay (HeLa cell line); format: cell-based; settings: Homo sapiens, 96 h, read-out: Biological Assay 2: Proliferation assay (HeLa cell line) median IC50
Method: Cultivated tumor cells (cells were ordered from ATCC, except HeLa-MaTu and HeLa-MaTu-ADR, which were ordered from EPO-GmbH, Berlin) were plated at a density of 1000 to 5000 cells/well, depending on the growth rate of the respective cell line, in a 96-well multititer plate in 200 μL of their respective growth medium supplemented 10% fetal calf serum. After 24 hours, the cells of one plate (zero-point plate) were stained with crystal violet (see below), while the medium of the other plates was replaced by fresh culture medium (200 μL), to which the test substances were added in various concentrations (0 μM, as well as in the range of 0.001-10 μM; the final concentration of the solvent dimethyl sulfoxide was 0.5%). The cells were incubated for 4 days in the presence of test substances. Cell proliferation was determined by staining the cells with crystal violet: the cells were fixed by adding 20 μL/measuring point of an 11% glutaric aldehyde solution for 15 minutes at room temperature. After three washing cycles of the fixed cells with water, the plates were dried at room temperature. The cells were stained by adding 100 μL/measuring point of a 0.1% crystal violet solution (pH 3.0). After three washing cycles of the stained cells with water, the plates were dried at room temperature. The dye was dissolved by adding 100 μl/measuring point of a 10% acetic acid solution. Absorbtion was determined by photometry at a wavelength of 595 nm. The change of cell number, in percent, was calculated by normalization of the measured values to the absorbtion values of the zero-point plate (=0%) and the absorbtion of the untreated (0 μm) cells (=100%). The IC50 values were determined by means of a 4 parameter fit.

[2] = 10 μM ATP, 1 μM peptide substrate, TR-FRET, read-out: Biological Assay 1: Bub1 kinase assay median IC50
[3] = 4 days incubation, crystal violet staining

T1 sequence (O43683 704-1085): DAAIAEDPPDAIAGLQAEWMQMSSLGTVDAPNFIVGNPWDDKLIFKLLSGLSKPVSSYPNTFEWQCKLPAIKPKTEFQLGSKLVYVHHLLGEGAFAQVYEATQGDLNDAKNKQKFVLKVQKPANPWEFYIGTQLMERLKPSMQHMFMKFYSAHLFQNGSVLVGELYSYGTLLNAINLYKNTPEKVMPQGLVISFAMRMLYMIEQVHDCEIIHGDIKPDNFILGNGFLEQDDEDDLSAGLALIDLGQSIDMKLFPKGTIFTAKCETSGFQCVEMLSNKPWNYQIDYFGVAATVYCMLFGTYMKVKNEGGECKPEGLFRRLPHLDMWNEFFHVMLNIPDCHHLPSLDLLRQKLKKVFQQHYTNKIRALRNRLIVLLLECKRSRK

Row | Structure (SMILES) | IC50 [1, 2] | IC50 (HeLa cell line) | IC50 [1] | IC50 (HeLa cell line; [3])
1 | CCNC(=O)Nc1nc(-c2nn(Cc3c(F)cc(OCC)cc3F)c(C3CC3)c2C)nc(Nc2ccncn2)c1N1CCOCC1 [Example 2-1-19, 1-{2-[5-cyclopropyl-1-(4-ethoxy-2,6-difluorobenzyl)-4-methyl-1H-pyrazol-3-yl]-5-(morpholin-4-yl)-6-(pyrimidin-4-ylamino)pyrimidin-4-yl}-3-ethylurea] | 2100 nM | 5.6 µM |  | 
2 | CCOc1cc(F)c(Cn2nc(-c3nc(NC(=O)NC4CCCCC4)c(N4CCOCC4)c(Nc4ccncc4)n3)c(C)c2C2CC2)c(F)c1 [Example 2-1-20, 1-cyclohexyl-3-{2-[5-cyclopropyl-1-(4-ethoxy-2,6-difluorobenzyl)-4-methyl-1H-pyrazol-3-yl]-5-(morpholin-4-yl)-6-(pyridin-4-ylamino)pyrimidin-4-yl}urea] |  |  | 920 nM | 3.3 µM
3 | CCOc1cc(F)c(Cn2nc(-c3nc(NC(=O)NC4CCCCC4)c(N4CCOCC4)c(Nc4ccncn4)n3)c(C)c2C2CC2)c(F)c1 [Example 2-1-21, 1-cyclohexyl-3-{2-[5-cyclopropyl-1-(4-ethoxy-2,6-difluorobenzyl)-4-methyl-1H-pyrazol-3-yl]-5-(morpholin-4-yl)-6-(pyrimidin-4-ylamino)pyrimidin-4-yl}urea] | 1400 nM | 7.4 µM |  | 
4 | C=CC(=O)Nc1cc(Nc2ccncc2)nc(-c2nn(Cc3c(F)cc(OCC)cc3F)c(C3CC3)c2C)n1 [Example 2-1-22, N-{2-[5-cyclopropyl-1-(4-ethoxy-2,6-difluorobenzyl)-4-methyl-1H-pyrazol-3-yl]-6-(pyridin-4-ylamino)pyrimidin-4-yl}prop-2-enamide] |  |  | 59 nM | 9.8 µM
5 | CCOc1cc(F)c(Cn2nc(-c3nc(N)cc(Nc4ccnnc4)n3)c(C)c2C2CC2)c(F)c1 [Example 2-1-23, 2-[5-cyclopropyl-1-(4-ethoxy-2,6-difluorobenzyl)-4-methyl-1H-pyrazol-3-yl]-N-(pyridazin-4-yl)pyrimidine-4,6-diamine] | 18 nM | 6 µM |  | 
6 | CCOc1cc(F)c(Cn2nc(-c3nc(N)nc(Nc4ccnnc4)n3)c(C)c2C2CC2)c(F)c1 [Example 2-1-24, 6-[5-cyclopropyl-1-(4-ethoxy-2,6-difluorobenzyl)-4-methyl-1H-pyrazol-3-yl]-N-(pyridazin-4-yl)-1,3,5-triazine-2,4-diamine] |  |  | 130 nM | 6 µM
7 | CCOc1cc(F)c(Cn2nc(-c3nc(N)c(OCCOC)c(Nc4ccncc4)n3)c(C)c2C2CC2)c(F)c1 [Example 2-1-25, 2-[5-cyclopropyl-1-(4-ethoxy-2,6-difluorobenzyl)-4-methyl-1H-pyrazol-3-yl]-5-(2-methoxyethoxy)-N-(pyridin-4-yl)pyrimidine-4,6-diamine] | 10 nM | 3 µM |  | 
8 | CCOc1cc(F)c(Cn2nc(-c3nc(N)c(OCCOC)c(Nc4ccncn4)n3)c(C)c2C2CC2)c(F)c1 [Example 2-1-26, 2-[5-cyclopropyl-1-(4-ethoxy-2,6-difluorobenzyl)-4-methyl-1H-pyrazol-3-yl]-5-(2-methoxyethoxy)-N-(pyrimidin-4-yl)pyrimidine-4,6-diamine] |  |  | 9.2 nM | 4.2 µM
9 | CCOc1cc(F)c(Cn2nc(-c3nc(N)c(NC(=O)COC)c(Nc4ccncc4)n3)c(C)c2C2CC2)c(F)c1 [Example 2-1-27, N-{4-amino-2-[5-cyclopropyl-1-(4-ethoxy-2,6-difluorobenzyl)-4-methyl-1H-pyrazol-3-yl]-6-(pyridin-4-ylamino)pyrimidin-5-yl}-2-methoxyacetamide] | 16 nM | > 10 µM |  | 
10 | CCOc1cc(F)c(Cn2nc(-c3nc(N)c(NC(=O)COC)c(Nc4ccncn4)n3)c(C)c2C2CC2)c(F)c1 [Example 2-1-28, N-{4-amino-2-[5-cyclopropyl-1-(4-ethoxy-2,6-difluorobenzyl)-4-methyl-1H-pyrazol-3-yl]-6-(pyrimidin-4-ylamino)pyrimidin-5-yl}-2-methoxyacetamide] |  |  | 13 nM | 10 µM

More lines, now with the values ahead:

Row | IC50 [1, 2] | IC50 (HeLa cell line) | IC50 [1] | IC50 (HeLa cell line; [3]) | Structure (SMILES)
11 | 19 nM | 5.3 µM |  |  | CCNC(=O)Nc1c(N)nc(-c2nn(Cc3c(F)cc(OCC)cc3F)c(C3CC3)c2C)nc1Nc1ccncc1 [Example 2-1-29, 1-{4-amino-2-[5-cyclopropyl-1-(4-ethoxy-2,6-difluorobenzyl)-4-methyl-1H-pyrazol-3-yl]-6-(pyridin-4-ylamino)pyrimidin-5-yl}-3-ethylurea]
12 | 8.8 nM | > 10 µM |  |  | CCOc1cc(F)c(Cn2nc(-c3nc(N)c(NS(=O)(=O)CC)c(Nc4ccncc4)n3)c(C)c2C2CC2)c(F)c1 [Example 2-1-30, N-{4-amino-2-[5-cyclopropyl-1-(4-ethoxy-2,6-difluorobenzyl)-4-methyl-1H-pyrazol-3-yl]-6-(pyridin-4-ylamino)pyrimidin-5-yl}ethanesulfonamide]
13 | 9.8 nM | 10 µM |  |  | CCOc1cc(F)c(Cn2nc(-c3nc(N)c(NS(=O)(=O)C(F)(F)F)c(Nc4ccncc4)n3)c(C)c2C2CC2)c(F)c1 [Example 2-1-31, N-{4-amino-2-[5-cyclopropyl-1-(4-ethoxy-2,6-difluorobenzyl)-4-methyl-1H-pyrazol-3-yl]-6-(pyridin-4-ylamino)pyrimidin-5-yl}-1,1,1-trifluoromethanesulfonamide]
14 | 12 nM | > 10 µM |  |  | CCOc1cc(F)c(Cn2nc(-c3nc4c(c(Nc5ccncc5)n3)OCC(=O)N4)c(C)c2C2CC2)c(F)c1 [Example 2-1-32, 2-[5-cyclopropyl-1-(4-ethoxy-2,6-difluorobenzyl)-4-methyl-1H-pyrazol-3-yl]-4-(pyridin-4-ylamino)-6H-pyrimido[5,4-b][1,4]oxazin-7(8H)-one]
15 | 34 nM | 10 µM |  |  | CCOc1cc(F)c(Cn2nc(-c3nc4c(c(Nc5ccncn5)n3)OCC(=O)N4)c(C)c2C2CC2)c(F)c1 [Example 2-1-33, 2-[5-cyclopropyl-1-(4-ethoxy-2,6-difluorobenzyl)-4-methyl-1H-pyrazol-3-yl]-4-(pyrimidin-4-ylamino)-6H-pyrimido[5,4-b][1,4]oxazin-7(8H)-one]
16 | 180 nM | > 10 µM |  |  | CCOc1cc(F)c(Cn2nc(-c3nc(Nc4ccncn4)c(OC)c(Nc4ccncn4)n3)c(C)c2C2CC2)c(F)c1 [Example 2-2-5, 2-[5-cyclopropyl-1-(4-ethoxy-2,6-difluorobenzyl)-4-methyl-1H-pyrazol-3-yl]-5-methoxy-N,N′-di(pyrimidin-4-yl)pyrimidine-4,6-diamine]
17 |  |  | 1000 nM | 10 µM | CCOc1cc(F)c(Cn2nc(-c3nc(Nc4ccnnc4)cc(Nc4ccnnc4)n3)c(C)c2C2CC2)c(F)c1 [Example 2-2-10, 2-[5-cyclopropyl-1-(4-ethoxy-2,6-difluorobenzyl)-4-methyl-1H-pyrazol-3-yl]-N,N′-di(pyridazin-4-yl)pyrimidine-4,6-diamine]
18 |  |  | 120 nM | 10 µM | CCOc1cc(F)c(Cn2nc(-c3nc(Nc4ccncn4)c(OCCOC)c(Nc4ccncn4)n3)c(C)c2C2CC2)c(F)c1 [Example 2-2-13, 2-[5-cyclopropyl-1-(4-ethoxy-2,6-difluorobenzyl)-4-methyl-1H-pyrazol-3-yl]-5-(2-methoxyethoxy)-N,N′-di(pyrimidin-4-yl)pyrimidine-4,6-diamine]
19 | 350 nM | 2.8 µM |  |  | CCOc1cc(F)c(Cn2nc(-c3nc(Nc4ccncc4)c(NC(=O)COC)c(Nc4ccncc4)n3)c(C)c2C2CC2)c(F)c1 [Example 2-2-14, N-{2-[5-cyclopropyl-1-(4-ethoxy-2,6-difluorobenzyl)-4-methyl-1H-pyrazol-3-yl]-4,6-bis(pyridin-4-ylamino)pyrimidin-5-yl}-2-methoxyacetamide]
